This note sets out measurements from patent publication US9198967B2, “Pharmaceutical compositions active in preventing, stabilizing and treating Alzheimer's disease” (priority 2009, dated 2015).

This assay deals with fusiform erythrocytes (FE). The assay is described as follows: FE percentage by Nomarski microscopy on 400 erythrocytes, 6-month clinical study. The format is in vivo, human. Conditions: 6 months. How it is done:
The effect of the composition of the invention on FE is measured by the percentage difference in fusiform erythrocytes present in the patient's blood before and after treatment with the composition of the invention.
During the assessments blood was collected, after fasting since the previous evening, into heparinized and non-heparinized tubes. Aliquots of 5 ml were collected (2 of plasma and 1 of serum) from the brachial vein. The collected blood was immediately centrifuged and kept at −80° C. until required for the measurements. A fourth aliquot of 2 ml, without heparin, was collected for FE analysis.
FE measurements were carried out by isolating the erythrocyte pellet by centrifugation (100×g for 15 minutes at 4° C.) and diluting it in 2 ml of a citrate-phosphate-dextrose solution with adenine (CPDA) then centrifuged once more.
After centrifugation the upper part of the solution was removed and the process repeated three times always resuspending with CPDA.
Immediately after the last preparation, FE percentage was calculated using a microscope with Nomarski optics based on an analysis of 400 erythrocytes [Mohanty J G, Eckley D M, J D Williamson et al. Do red blood cell-β-amyloid interaction alter oxygen delivery in Alzheimer's disease? Adv Exp Med Biol 2008; 614:29-35.]

Structures are written as SMILES.

With `COc1cc2c(cc1OC)C(=O)C(CC1CCN(Cc3ccccc3)CC1)C2` (stereo not shown) [Donepezil], the “effect on the number of FE (in words)” value is listed as “improvement in the FE”.
